Series [1] addresses T1, HsDHODH (Homo sapiens, UniProt Q02127).
T1 construct: made in house
As to the kind of experiment: Selectivity assay: HsDHODH single-dose inhibition (DCIP reduction). The class given is biochemical. In a few lines:
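Recombinant human DHODH at 20 nM final, purified by Ni-NTA affinity, tested at a single compound concentration in triplicate. DCIP reduction followed at 610 nm every 3 s over 60 s. Velocity expressed as % activity relative to enzyme control without compound.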

Series [2] is described as follows: Kinetic solubility assay in PBS pH 7.4. In kind it is physicochemical. Conditions: kinetic from dmso stock, 1% DMSO; for solubility kinetic at 2 h: 25 °C, pH 7.4, aqueous buffer, PBS pH 7.4, 200 μM test conc, 2 h at 25 °C; for solubility at 2 h: aqueous buffer, PBS pH 7.4, 200 µM, 2 hours at 25°C. The protocol:
The plate was incubated for 2 h at 25 °C. The precipitates on the incubation plate were removed by filtration and the filtrates were quantified by LC-MS/MS. Calibration curves were prepared for each compound by using 5–6 points. Samples were analyzed by UV–vis.

Series [3] in a line: in vitro. Conditions: microsomes; for microsomal CLint at 1 μM / remaining at 5 min, 1 μM: male, CD1, mouse; for remaining at 5 min, 1 μM / remaining at 10 min, 1 µM / remaining at 20 min, 1 µM / remaining at 0.5 h, 1 µM / remaining at 1 h, 1 µM: pH 7.4, % Remaining; for remaining at 5 min, 1 μM: T=5 min; for remaining at 10 min, 1 µM / remaining at 20 min, 1 µM / remaining at 0.5 h, 1 µM / remaining at 1 h, 1 µM: mouse; for remaining at 10 min, 1 µM: T=10 min; for remaining at 20 min, 1 µM: T=20 min; for remaining at 0.5 h, 1 µM: T=30 min, 30 min; for remaining at 1 h, 1 µM: T=60 min, 60 min.

For series [4], the target named is LbDHODH (Leishmania braziliensis, UniProt E9AI53). As to the kind of experiment: Kinact/KI determination from LbDHODH progress curves (kobs vs inhibitor concentration). In kind it is biochemical. The conditions noted are these: for kinact/KI: slope of kobs vs inhibitor concentration. The source says: The Kinact/Ki ratio is a key parameter for evaluating the potency of covalent inhibitors, as it quantitatively measures both their reactivity and affinity for the target enzyme. This parameter integrates two crucial aspects: KI, which reflects the inhibitor’s binding affinity, and Kinact, which describes the rate at which the covalent bond is formed. […] Therefore, this ratio is essential for ranking covalent inhibitors, optimizing their potency, and guiding structure-based drug design.
The experiments were performed in a 96-well microplate reader (SpectraMax Plus 384, Molecular Devices, USA), containing the […] of the buffer 60 mM DCIP, 50 mM Tris pH 8.15, 150 mM KCl, 0.1% Triton X-100, 50 μM DHO and 10 μM of LbDHODH at 165 nM. The reaction was monitored every 3 s at 610 nm over a period of 60 s, in triplicate, for the control and each concentration of the inhibitor. All assays were performed without incubation (0h) and with 4-h preincubation of the inhibitor with LbDHODH, using 5% DMSO (v/v) as control. […] To determine the IC50 values, the activity percentage data were fitted as a function of the concentration logarithm by nonlinear regression analysis (variable hillslope) using Prism 9.0 software (GraphPad Software, USA). […] The resulting kobs values were plotted as a function of inhibitor concentration, and the data in the initial linear region was fit to determine the slope, which is kinact/KI. All regressions were performed with GraphPad Prism 9.

Series [5] deals with THP-1 cells. As to the kind of experiment: Cell viability / cytotoxicity assay (PrestoBlue, 72 h). Conditions: THP-1 cell line, 72 h, max 200 μM. The class given is cell-based. In a few lines: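 PMA-differentiated THP-1 cells (150 ng/mL PMA, 48 h; then 24 h in fresh medium) were exposed to compounds in serial dilution from 200 μM for 72 h at 37 °C, 5% CO2. Viability was read by PrestoBlue fluorescence (ex 560/em 590 nm) after 2 h.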

Setting [6] is: read-out: Single dose (0h) % activity.
Where [7] appears, read: read-out: Single dose (4h) % activity.
[8] abbreviates: n=1, mouse liver microsomes, 1 µM, n=1.
Setting [9] is: n=2, mouse liver microsomes, 1 µM, n=2.
The mark [10] stands for this setting: pH 7.4, mouse liver microsomes CLint, app, mouse liver microsomes, NADPH, 1 μM.

Structures are written as SMILES. Values after ≈ are worked out from the molar mass of the structure shown. Where two headings read alike, the source gives them in different places.

T1 sequence (Q02127 whole entry): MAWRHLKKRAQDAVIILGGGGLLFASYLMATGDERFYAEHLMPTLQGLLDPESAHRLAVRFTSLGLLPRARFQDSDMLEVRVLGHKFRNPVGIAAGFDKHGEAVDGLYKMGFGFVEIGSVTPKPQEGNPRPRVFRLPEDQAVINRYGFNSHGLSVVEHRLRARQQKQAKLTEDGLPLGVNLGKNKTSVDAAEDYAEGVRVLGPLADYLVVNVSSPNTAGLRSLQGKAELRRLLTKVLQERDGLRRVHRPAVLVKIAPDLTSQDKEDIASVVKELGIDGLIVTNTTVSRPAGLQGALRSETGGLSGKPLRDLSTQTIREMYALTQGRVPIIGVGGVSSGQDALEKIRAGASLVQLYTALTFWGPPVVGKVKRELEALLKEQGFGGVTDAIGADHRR
Sequence of LbDHODH (E9AI53 entry or part of it): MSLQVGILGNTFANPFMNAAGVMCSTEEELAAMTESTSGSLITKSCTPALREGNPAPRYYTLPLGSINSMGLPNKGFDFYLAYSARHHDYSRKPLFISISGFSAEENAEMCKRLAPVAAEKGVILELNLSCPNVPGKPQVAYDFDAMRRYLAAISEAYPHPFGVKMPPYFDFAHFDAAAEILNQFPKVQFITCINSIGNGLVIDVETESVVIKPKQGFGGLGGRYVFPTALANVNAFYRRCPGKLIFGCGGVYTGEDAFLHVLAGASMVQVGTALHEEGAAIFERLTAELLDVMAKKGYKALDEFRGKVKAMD

As a reminder, the solubility (kinetic) is the concentration staying in solution when a stock, usually in DMSO, is diluted into the medium. One may read the solubility as the dissolved amount per volume that the medium holds. A higher solubility goes with much dissolved substance. Usually microsomal CLint stands for the capacity of the preparation to metabolise the compound, expressed as a volume cleared per time. For the compound `COc1cc(C=C2C(=O)NC(=O)NC2=O)ccc1O` [2c, 5-(4-Hydroxy-3-methoxybenzylidene)pyrimidine-2,4,6(1H,3H,5H)-trione], the activity at 100 µM was found to be 80 ± 9% in series [1] (setting [6]) and 83 ± 8% in series [1] (setting [7]). This compound returned a kinetic solubility at 2 h in series [2] of 195 µM (≈ 51 µg/mL). This compound also showed a solubility at 2 h in series [2] of 51 µg/mL (≈ 194 µM). For the same compound, the intrinsic metabolic clearance (microsomal CLint) at 1 μM in series [3] (pH 7.4) was 283 µL/min/mg; in series [3] (pH 7.4, Calculated CLint, app (µl/min/mg), Average, mouse liver microsomes, 0.4 mg/ml protein, 1 µM), 290 µL/min/mg; in series [3] (pH 7.4, Calculated CLint, app (µl/min/mg), n=1, mouse liver microsomes, 0.4 mg/ml protein, 1 µM, replicate n=1) it was 283 µL/min/mg; in series [3] (pH 7.4, Calculated CLint, app (µl/min/mg), n=2, mouse liver microsomes, 0.4 mg/ml protein, 1 µM, replicate n=2), 298 µL/min/mg; in series [3] (setting [10]), 290 µL/min/mg. Further, the amount remaining at 5 min, 1 μM came to 38.7% in series [3] (setting [8]) and 50.5% in series [3] (setting [9]). The fraction remaining at 10 min, 1 µM in series [3] (setting [8]) is 17.1%; in series [3] (setting [9]) it was 17.8%. The fraction remaining at 20 min, 1 µM is 9.8% in series [3] (setting [8]) and 9.5% in series [3] (setting [9]). The amount remaining at 0.5 h, 1 µM in series [3] (setting [8]) was found to be 6.6%; in series [3] (setting [9]) it was 9.5%. Moreover, the values for the share remaining at 1 h, 1 µM in series [3] (setting [8]) and in series [3] (setting [9]) were 12.9% and 13.3%, respectively.

A word on the kinact/KI: it is the second-order rate constant of inactivation. Regarding `O=C1NC(=O)C(=Cc2ccc(O)c([N+](=O)[O-])c2)C(=O)N1` [2d, 5-(4-Hydroxy-3-nitrobenzylidene)pyrimidine-2,4,6(1H,3H,5H)-trione], the Kobs in series [4] (inhibitor 0.18 µM) is 0.003357 ± 0.002 s⁻¹; in series [4] (inhibitor 0.390625 µM), 0.003416 ± 0.002 s⁻¹; in series [4] (inhibitor 0.78125 µM) it was 0.003424 ± 0.002 s⁻¹; in series [4] (inhibitor 1.5625 µM), 0.003613 ± 0.002 s⁻¹; in series [4] (inhibitor 3.125 µM), 0.0038 ± 0.002 s⁻¹; in series [4] (inhibitor 6.25 µM), 0.004522 ± 0.002 s⁻¹. Besides, the Kobs in series [4] (inhibitor 12.5 µM) is 0.004748 ± 0.002 s⁻¹; in series [4] (inhibitor 25 µM), 0.005571 ± 0.002 s⁻¹; in series [4] (inhibitor 100 µM) it was 0.01122 ± 0.001 s⁻¹; in series [4] (inhibitor 200 µM) it was 0.01796 ± 0.003 s⁻¹. Further, the inactivation efficiency (kinact/KI) in series [4] worked out at 73 M⁻¹ s⁻¹. The activity at 100 µM amounted to 90 ± 10% in series [1] (setting [6]) and 92 ± 9% in series [1] (setting [7]). In series [2], the solubility (kinetic) at 2 h came out at 190 µM (≈ 52.7 µg/mL). The compound also displayed a solubility at 2 h in series [2] of 52.7 µg/mL (≈ 190 µM).

`O=C1NC(=O)C(=Cc2ccc(N3CCOCC3)cc2[N+](=O)[O-])C(=O)N1` [2e, 5-(4-Morpholino-2-nitrobenzylidene)pyrimidine-2,4,6(1H,3H,5H)-trione]: the activity at 100 µM in series [1] (setting [6]) came to 80 ± 9%. Also, the activity at 100 µM in series [1] (setting [7]) amounted to 86 ± 8%. In series [2], this compound gave a solubility (kinetic) at 2 h of 178 µM (≈ 61.8 µg/mL) and a solubility at 2 h of 53.4 µg/mL (≈ 154 µM). Besides, in series [3] (pH 7.4), the microsomal CLint at 1 μM was under 14.4 µL/min/mg. Besides, in series [3] (setting [8]), the amount remaining at 5 min, 1 μM amounted to 91.8%; the amount remaining at 10 min, 1 µM came to 96%; the amount remaining at 20 min, 1 µM is 83.8%; the amount remaining at 0.5 h, 1 µM stood at 85%. In addition, the amount remaining at 1 h, 1 µM in series [3] (setting [8]) is 87.6%. Also, in series [3] (setting [9]), the share remaining at 5 min, 1 μM worked out at 103%; the amount remaining at 10 min, 1 µM came out at 109%; the amount remaining at 20 min, 1 µM is 99.7%; the amount remaining at 0.5 h, 1 µM turned out to be 91.7%. The share remaining at 1 h, 1 µM in series [3] (setting [9]) came to 88.8%. For the same compound, the intrinsic clearance (microsomal CLint) at 1 μM in series [3] (setting [10]) was under 14.4 µL/min/mg.

For `O=C1NC(=O)C(=Cc2ccc(-c3ccccc3F)[nH]2)C(=O)N1` [2h, 5-((5-(2-Fluorophenyl)-1H-pyrrol-2-yl)methylene)pyrimidine-2,4,6(1H,3H,5H)-trione], the activity at 100 µM in series [1] (setting [6]) was 100 ± 11%. Moreover, the activity at 100 µM in series [1] (setting [7]) came out at 71 ± 7%. In series [2], the kinetic solubility at 2 h stood at 4.63 µM (≈ 1.39 µg/mL) and the solubility at 2 h was 1.6 µg/mL (≈ 5.35 µM). For the same compound, the microsomal CLint at 1 μM in series [3] (pH 7.4) is over 578 µL/min/mg. In series [3] (setting [8]), the fraction remaining at 5 min, 1 μM was determined as 5.9%; the share remaining at 10 min, 1 µM was determined as 1.7%; the fraction remaining at 20 min, 1 µM worked out at 0.7%; the fraction remaining at 0.5 h, 1 µM was found to be 0.554%. For the same compound, the fraction remaining at 1 h, 1 µM in series [3] (setting [8]) is 0.158%. Further, in series [3] (setting [9]), the fraction remaining at 5 min, 1 μM amounted to 5.1%; the share remaining at 10 min, 1 µM stood at 1.7%; the share remaining at 20 min, 1 µM was 0.7%; the fraction remaining at 0.5 h, 1 µM turned out to be 0.554%. Besides, in series [3] (setting [9]), the amount remaining at 1 h, 1 µM was 0.16%. The compound further gave a microsomal CLint at 1 μM in series [3] (setting [10]) of over 578 µL/min/mg.

For `O=C1NC(=O)C(=C/C=C/c2ccccc2)C(=O)N1` [2i, (E)-5-(3-Phenylallylidene)pyrimidine-2,4,6(1H,3H,5H)-trione], the Kobs in series [4] (inhibitor 0.0975 µM) was found to be 0.002849 ± 0.002 s⁻¹; in series [4] (inhibitor 0.195 µM), 0.002994 ± 0.002 s⁻¹; in series [4] (inhibitor 0.390625 µM), 0.003028 ± 0.002 s⁻¹; in series [4] (inhibitor 0.78125 µM), 0.003309 ± 0.002 s⁻¹; in series [4] (inhibitor 1.5625 µM), 0.003849 ± 0.002 s⁻¹; in series [4] (inhibitor 3.125 µM), 0.005668 ± 0.003 s⁻¹. In addition, the Kobs in series [4] (inhibitor 6.25 µM) is 0.007929 ± 0.002 s⁻¹; in series [4] (inhibitor 12.5 µM), 0.02055 ± 0.002 s⁻¹; in series [4] (inhibitor 25 µM) it was 0.0045 ± 0.002 s⁻¹. In series [4], the second-order inactivation constant (kinact/KI) came out at 767 M⁻¹ s⁻¹. Further, in series [1] (100 μM, with or without 4-h incubation), the “inhibition of HsDHODH in single-dose assays” value is recorded as “no inhibition”. The activity at 100 µM was 93 ± 11% in series [1] (setting [6]) and 91 ± 9% in series [1] (setting [7]). Further, the CC50 result in series [5] is listed as “no cytotoxicity”. For the same compound, the solubility (kinetic) at 2 h in series [2] was 41.4 µM (≈ 10 µg/mL). The concentration in solution in series [2] (solubility at 2 h) was 10 µg/mL (≈ 41.3 µM). The intrinsic metabolic clearance (microsomal CLint) at 1 μM in series [3] (pH 7.4) and in series [3] (setting [10]) was over 578 µL/min/mg throughout. In addition, the fraction remaining at 5 min, 1 μM in series [3] (setting [8]) turned out to be 28.2%; in series [3] (setting [9]) it was 28.1%. In addition, the amount remaining at 10 min, 1 µM in series [3] (setting [8]) and in series [3] (setting [9]) was 0% throughout. In addition, the amount remaining at 20 min, 1 µM in series [3] (setting [8]) and in series [3] (setting [9]) was 0% each time. For the same compound, the fraction remaining at 0.5 h, 1 µM in series [3] (setting [8]) and in series [3] (setting [9]) was 0% in each case. Besides, the share remaining at 1 h, 1 µM in series [3] (setting [8]) and in series [3] (setting [9]) was 0% in each case.

The values above are taken from paper PMC12481576, “Barbituric Acid Derivatives as Covalent Inhibitors of Leishmania braziliensis Dihydroorotate Dehydrogenase” (Journal of Medicinal Chemistry, 2025).
